Reference: patent US6642217B2, “Triterpenes having human antifungal and antiyeast activity” (Naturtek, LLC, priority 2000, dated 2003)
One block for each compound: values may come before it.

Key:
[1] = test system: Trichophyton tonsuran; experiment: Agar dilution method, growth on Sabouraud dextrose agar slants; type: cell-based, Trichophyton tonsurans; design: key: +++: Maximum Fungal Growth; ++: Moderate Fungal Growth; +: Minimum Fungal Growth; +/−: Very little Fungal Growth; −: No Fungal Growth; conditions: 12th day after inoculation
Procedure: (§1) Agar dilution method. Sabouraud Dextrose Agar (Difco Laboratories, Michigan) was prepared according to the manufacturer's instructions. Five ml was dispensed in a 100×25 mm tube and autoclaved. To each tube containing 5.0 ml of liquid agar at 45° C., 0.5, 0.25, 0.12, or 0.063 ml of a DMSO solution of the compound was added to give the final indicated concentrations in Table 2. The agar was then solidified in slants. Fungal cultures were inoculated. The slants were incubated at 25-28° C. for 10-12 days, and the growth of the fungus was recorded every second day.

[2] = test system: Microsporum audouinii; experiment: Summary of anti-fungal assays (direct addition, agar dilution, liquid culture); type: cell-based; conditions: stated in words (Tables 1a/1b, text to Table 5)
Procedure: (§2) This example summarizes the results of various other assays of the anti-fungal activity of betulin derivatives. Table 5 summarizes results using different assay methods—direct addition, agar dilution, and direct addition to liquid culture, as disclosed in the previous three Examples. In some cases, only one type of assay was done with a compound. In other cases, the compound was tested by multiple assays.

[3] = test system: Trichophyton rubrum; experiment: Direct addition method, solid compound in Sabouraud dextrose agar; type: cell-based; design: key: +++: Maximum Fungal Growth; ++: Moderate Fungal Growth; +: Minimum Fungal Growth; +/−: Very little Fungal Growth; −: No Fungal Growth; conditions: 4 mg/mL of agar; 12th day after inoculation
Procedure: (§3) Direct addition method. Sabouraud dextrose agar was prepared according to the manufacturer's instructions and 5.0 ml was dispensed in each 100×25 mm tube. The tubes were autoclaved. To each tube containing 5.0 ml of liquid agar at 45° C., 20 mg of solid test compound was added, to give a final concentration of 4 mg/ml. The agar was solidified in slants. The fungal cultures were then innoculated. The slants were incubated at 25-28 ° C. for 10-12 days, and the growth of the fungus was recorded every second day. The results in Table 2 indicate growth at the 12th day of inoculation.

[4] = test system: Microsporum canis; experiment: as above; type: cell-based; design: key: +++: Maximum Fungal Growth; ++: Moderate Fungal Growth; +: Minimum Fungal Growth; +/−: Very little Fungal Growth; −: No Fungal Growth; conditions: 4 mg/mL of agar; 12th day after inoculation
Procedure: as §3

[5] = test system: Epidermophyton floccosum; experiment: as above; type: cell-based; design: key: +++: Maximum Fungal Growth; ++: Moderate Fungal Growth; +: Minimum Fungal Growth; +/−: Very little Fungal Growth; −: No Fungal Growth; conditions: 4 mg/mL of agar; 12th day after inoculation
Procedure: as §3

[6] = test system: Pityrosporum ovale; experiment: as above; type: cell-based; design: key: +++: Maximum Fungal Growth; ++: Moderate Fungal Growth; +: Minimum Fungal Growth; +/−: Very little Fungal Growth; −: No Fungal Growth; conditions: 4 mg/mL of agar; 12th day after inoculation
Procedure: as §3

[7] = test system: P. ovale; experiment: Summary of anti-fungal assays (direct addition, agar dilution, liquid culture); type: cell-based, Pityrosporum ovale; conditions: stated in words (Tables 1a/1b, text to Table 5)
Procedure: as §2

[8] = test system: Epidermophyton floccosum; experiment: Agar dilution method, growth on Sabouraud dextrose agar slants; type: cell-based; design: key to Fungal growth: +++: Maximum Fungal Growth; ++: Moderate Fungal Growth; +: Minimum Fungal Growth; +/−: Very little Fungal Growth; −: No Fungal Growth; conditions: 12th day after inoculation
Procedure: as §1

[9] = test system: Microsporum audouinni; experiment: Direct addition method, solid compound in Sabouraud dextrose agar; type: cell-based, Microsporum audouinii; design: key to Fungal growth: +++: Maximum Fungal Growth; ++: Moderate Fungal Growth; +: Minimum Fungal Growth; +/−: Very little Fungal Growth; −: No Fungal Growth; conditions: for Fungal growth: 4 mg/mL of agar, 12th day after inoculation
Procedure: as §3

[10] = test system: Microsporum audouinni; experiment: Agar dilution method, growth on Sabouraud dextrose agar slants; type: cell-based, Microsporum audouinii; design: key: +++: Maximum Fungal Growth; ++: Moderate Fungal Growth; +: Minimum Fungal Growth; +/−: Very little Fungal Growth; −: No Fungal Growth; conditions: 12th day after inoculation
Procedure: as §1

[11] = test system: Trichophyton rubrum; experiment: as above; type: cell-based; design: key: +++: Maximum Fungal Growth; ++: Moderate Fungal Growth; +: Minimum Fungal Growth; +/−: Very little Fungal Growth; −: No Fungal Growth; conditions: 12th day after inoculation
Procedure: as §1

[12] = test system: Microsporum canis; experiment: as above; type: cell-based; design: key: +++: Maximum Fungal Growth; ++: Moderate Fungal Growth; +: Minimum Fungal Growth; +/−: Very little Fungal Growth; −: No Fungal Growth; conditions: 12th day after inoculation
Procedure: as §1

[13] = test system: Microsporum gypseum; experiment: as above; type: cell-based; design: key: +++: Maximum Fungal Growth; ++: Moderate Fungal Growth; +: Minimum Fungal Growth; +/−: Very little Fungal Growth; −: No Fungal Growth; conditions: 12th day after inoculation
Procedure: as §1

[14] = test system: Pityrosporum ovale; experiment: as above; type: cell-based; design: key: +++: Maximum Fungal Growth; ++: Moderate Fungal Growth; +: Minimum Fungal Growth; +/−: Very little Fungal Growth; −: No Fungal Growth; conditions: 12th day after inoculation
Procedure: as §1

[15] = test system: Trichophyton mentagrophyte; experiment: as above; type: cell-based, Trichophyton mentagrophytes; design: key to Fungal growth: +++: Maximum Fungal Growth; ++: Moderate Fungal Growth; +: Minimum Fungal Growth; +/−: Very little Fungal Growth; −: No Fungal Growth; conditions: 12th day after inoculation
Procedure: as §1

[16] = test system: Pityrosporum ovale; experiment: Direct addition into the Pityrosporum agar; type: cell-based; design: key to Pityrosporum ovale growth: +++: Maximum Growth; ++: Moderate Growth; +: Minimum Growth; +/−: Very Little Growth; −: No Growth; conditions: for Growth inhibition of Pityrosporum ovale by the direct addition method: 4 mg/ml; for Pityrosporum ovale growth: 4 mg/ml in the agar, 18 hours after inoculation
Procedure: as §3, with “The slants were incubated at 25-28 ° C. for 10-12 days, and the growth of the fungus was recorded every second day. The results in Table 2 indicate growth at the 12th day of inoculation.” left out

melting point: 167 to 170 °C (dec.)
SMILES: C=C(C)[C@@H]1CCC2(CO)CC[C@@]3(C)C(CCC4[C@@]5(C)C=C(O)C(=O)C(C)(C)C5CC[C@]43C)C12 (stereo partly shown)

SMILES: CC1(C)CCC23CC[C@@]4(C)C(CCC5[C@@]6(C)CC[C@H](O)C(C)(C)C6CC[C@]54C)C2C1OC3 (stereo partly drawn) [Allobetulin, oleanan-3β-ol-28,19-β-ether]
Fungal growth ([1]; 9 μg/ml): +++ | Fungal growth ([1]; 19 μg/ml): ++ | Fungal growth ([1]; 38 μg/ml): ++ | Fungal growth ([1]; 75 μg/ml): − | Active against Microsporum audouinii [2]: Microsporum audouinii | Fungal growth [3]: + | Fungal growth [4]: ++ | Fungal growth [5]: − | Fungal growth [6]: − | Active against Pityrosporum ovale [7]: Pityrosporum ovale | Fungal growth ([8]; 9 μg/ml): ++ | Fungal growth ([8]; 19 μg/ml): + | Fungal growth ([8]; 38 μg/ml): + | Fungal growth ([8]; 75 μg/ml): − | Fungal growth [9]: + | Fungal growth ([10]; 9 μg/ml): +/− | Fungal growth ([10]; 19 μg/ml): − | Fungal growth ([10]; 38 μg/ml): − | Fungal growth ([10]; 75 μg/ml): − | Fungal growth ([11]; 9 μg/ml): ++ | Fungal growth ([11]; 19 μg/ml): ++ | Fungal growth ([11]; 38 μg/ml): + | Fungal growth ([11]; 75 μg/ml): − | Fungal growth ([12]; 9 μg/ml): +++ | Fungal growth ([12]; 19 μg/ml): ++ | Fungal growth ([12]; 38 μg/ml): ++ | Fungal growth ([12]; 75 μg/ml): − | Fungal growth ([13]; 9 μg/ml): +++ | Fungal growth ([13]; 19 μg/ml): ++ | Fungal growth ([13]; 38 μg/ml): ++ | Fungal growth ([13]; 75 μg/ml): − | Fungal growth ([14]; 9 μg/ml): +++ | Fungal growth ([14]; 19 μg/ml): +++ | Fungal growth ([14]; 38 μg/ml): ++ | Fungal growth ([14]; 75 μg/ml): − | Fungal growth ([15]; 9 μg/ml): ++ | Fungal growth ([15]; 19 μg/ml): + | Fungal growth ([15]; 38 μg/ml): + | Fungal growth ([15]; 75 μg/ml): − | Growth inhibition of Pityrosporum ovale by the direct addition method [16]: inhibited the growth | Pityrosporum ovale growth [16]: +/−

SMILES: CC(C)C(N)C(=O)OC1CCC2(C)C(CCC3(C)C2CCC2C4C5OCC4(CCC5(C)C)CCC23C)C1(C)C [Allobetulin-3-L-valine]
Active against Microsporum audouinii [2]: Microsporum audouinii | Fungal growth [3]: + | Fungal growth [4]: + | Fungal growth [5]: − | Fungal growth [6]: − | Active against Pityrosporum ovale [7]: Pityrosporum ovale | Fungal growth [9]: − | best anti-fungal or anti-yeast activity by the direct addition method ([9]; against Microsporum audouinii): against Microsporum audouinii | Growth inhibition of Pityrosporum ovale by the direct addition method [16]: inhibited the growth | Pityrosporum ovale growth [16]: +
